# Data reported in patent US20130296347A1, “Compositions and Methods for Prophylaxis and Treatment of Addictions” (Omeros Corporation, priority 2007, published 2013).
# Entries after “also recorded” stand apart in the source; their conditions may differ.
# Legend:
# msP rats [1] = experiment: Acute voluntary ethanol intake, free choice 10% alcohol 24 hours a day; type: in vivo, rat
# Experimental: MsP rats were first trained to drink 10% (w/v) alcohol for 24 hours a day (free choice between water and ethanol). […] Before starting the treatment, rats were trained to gavage administration procedures for three days, during which they received vehicle (distilled water). […] Drinking experiments started at the beginning of the dark cycle. Alcohol, water and food intakes were monitored at 2, 8 and 24 hours after ethanol was made available.
# Before starting the treatment, rats were trained to gavage and IP administration procedures for three days. Experiment was conducted in a between subject design (n=22). […] Drinking experiments started at the beginning of the dark cycle. Alcohol, water and food intakes were monitored at 2, 8 and 24 hours after ethanol was made available.
# The drinking experiments were conducted at the beginning of the dark cycle, and alcohol, water and food intakes were monitored at 2, 8 and 24 hours after ethanol was made available.
# (§1) MsP rats were first trained to drink 10% (w/v) alcohol for 24 hours a day (free choice between water and ethanol). […] Rats treated with drug vehicles served as a control. Before starting the treatment, rats were trained to gavage administration for three days, during which they received drugs vehicle (distilled water). […] Drinking experiments started at the beginning of the dark cycle. Alcohol, water, and food intakes were monitored at 2, 8 and 24 hours after ethanol was made available.
# as §1, with “water” for “water,”
# as §1, with “water” for “water,”
# as §1, with “water” for “water,”
# as §1, with “water” for “water,”
# as §1, with “water” for “water,”
# Wistar rats = experiment: Acquisition of heroin self-administration (FR1); type: in vivo, rat
# [2] = test system: Marchigian Sardinian alcohol-preferring (msP) rats; experiment: Acute voluntary ethanol intake, alcohol access restricted to 2 hours/day; type: in vivo, rat
# Experimental: At the beginning of the experiments, msP rats were allowed free choice between water and 10% (v/v) alcohol 24 h/day for at least 15 days. The fluids were offered in graduated drinking tubes equipped with metallic drinking spouts. The position (to the right or left) of alcohol and water drinking tubes was changed daily to avoid the development of side preference. Water and food were available ad libitum, while alcohol access was either restricted to 2 hours/day (Examples 1 and 2) or was available 24 hours/day (Examples 3 and 4). Alcohol, water and food intakes were measured.
# . After acquisition of a stable baseline of ethanol intake (6-8 g/kg bw; daily), alcohol access was restricted to 2 hours a day at the beginning of the dark phase. Water and food were freely available.
# […]. Before starting the treatment, rats were trained to gavage administration procedures for three days, during which they received vehicle (distilled water).
# Treatments were carried out at intervals of at least three days. […] Drinking experiments were conducted right at the beginning of the dark cycle. Alcohol, water and food intakes were monitored at 30, 60, 90 and 120 minutes after ethanol was made available.
# The msP rats (n=8) were prepared for the study as described in Example 1. After acquisition of a stable baseline of ethanol intake, alcohol access was restricted to 2 hours a day at the beginning of the dark phase. Water and food were freely available. […]. The experiment was conducted using a within subject counterbalanced Latine square design where each animal received all drug doses.
# These experiments were conducted at the beginning of the dark cycle and alcohol, and water and food intakes were monitored at 30, 60, 90 and 120 minutes after ethanol was made available.
# msP rats [3] = experiment: Yohimbine-induced (stress) reinstatement of alcohol seeking
# Source text: Stress-induced reinstatement of alcohol-seeking experimental procedures consisted of three phases: (1) training phase; (2) extinction phase; and (3) reinstatement phase, as described below.
# For the training phase, after completion of the fading procedure, msP rats were trained to self-administer 10% (v/v) alcohol for 15 days in 30-min daily sessions under a FR1 schedule of reinforcement. During the infusion, a stimulus house light was turned on for 5 s (time out; TO).
# For the extinction phase, after the last alcohol self-administration session, animals were subjected to 30-min extinction sessions for 15 consecutive days.
# The day after the last extinction session, rats were subjected to the reinstatement test.
# Animals received all drug treatments according to a counterbalance Latin square design. A 3-day interval, during which animals were subjected to extinction sessions, was allowed between drug tests.
# Long Evans rats = experiment: Yohimbine-induced reinstatement of nicotine seeking; type: in vivo, rat; conditions: pioglitazone all doses tested (5.0, 10.0 and 30.0 mg/kg), 12 and 1 hour before test
# Experimental: Stress and anxiety are major factors in resuming nicotine use in former abstinent users. […] Reinstatement experiments and relative drug treatments were performed every third day. Between reinstatements, extinction baseline was re-established.
# alcoholic patients = experiment: Observational study of alcohol abuse in human patients; type: in vivo
# Source text: ACT)+psychotherapy. […] Patients were instructed to record in a personal logbook the number of drinks per day and the time of the day drinks occurred. At the end of the study, the logbooks were returned to the clinical personnel who analyzed the data. […] In addition, biochemical parameters to ascertain alcohol detoxification and to measure recovery of physiological functions (i.e., hepatic function) were monitored monthly. Hematological parameters measured included: mean corpuscular volume (MCV); gamma-GT; aspartate aminotransferase (AST); alanine aminotransferase (ALT); and carbohydrate-deficient transferring (CDT). MCV and CDT are biomarkers for ethanol consumption, and GGT, ALT and AST are biomarkers for hepatic functionality. Data were analyzed by analysis of variance followed by Newman-Keuls post hoc tests when appropriate.
# heavy tobacco smokers = experiment: Pilot clinical study in heavy tobacco smokers; type: in vivo, human
# Experimental: Data were recorded for two months, during which patients were seen by the physician every other week. Patients were instructed to record in a personal logbook the number of cigarettes per day and the time of the day smoking occurred. At the end of the study, the logbooks were returned to the clinical personnel who analyzed the data. […] During the first month of treatment, every two weeks, ACTH and cortisol levels were also monitored to evaluate HPA activation before and during treatment.
# [4] = pioglitazone 30 mg/kg OS at 12 hours and 1 hour before access to ethanol
# [5] = pioglitazone 30 mg/day or naltrexone 50 mg/day + psychotherapy
structure (smiles),measurement,setting,value
CCc1ccc(CCOc2ccc(CC3SC(=O)NC3=O)cc2)nc1.Cl (stereo not drawn) [pioglitazone],"ethanol intake, drug alone (post-hoc)","msP rats [1]; low dose given at 12 hours and 1 hour before access, pioglitazone 10 mg/kg OS, partner drugs at doses of the examples",did not significantly modify
same,"ethanol intake at 2 hours, drug alone","msP rats [1]; pioglitazone 10 mg/kg OS, topiramate 30.0 mg/kg OS, p<0.05",significant reduction
same,ethanol consumption at 2 hours,msP rats [1]; pioglitazone 30 mg/kg OS,significantly reduced
same,ethanol consumption at 8 hours,msP rats [1]; pioglitazone 30 mg/kg OS,significantly reduced
same,ethanol consumption at 24 hours,msP rats [1]; pioglitazone 30 mg/kg OS,significantly reduced
same,"heroin self-administration versus control, day 3 to day 8",Wistar rats; pioglitazone 30 mg/kg twice daily,significant difference
same,acquisition of heroin self-administration,Wistar rats; pioglitazone 30 mg/kg twice daily (12 hours and 1 hour prior to session),significantly decreased
same,"ethanol consumption at 30, 60, or 90 minutes",[2]; [4],"not at 30, 60, or 90 minutes"
same,ethanol consumption at 2 hours,[2]; [4],significantly reduced
same,"ethanol intake, overall treatment effect (ANOVA)","[2]; pioglitazone 10.0, 30.0 mg/kg OS",absence of a significant treatment effect
same,yohimbine-induced reinstatement of alcohol seeking (active lever),msP rats [3]; pioglitazone 10 mg/kg OS at 12 hours and 1 hour before test,clear trend (p=0.07) to an inhibition
same,yohimbine-induced reinstatement of alcohol seeking (active lever),"msP rats [3]; pioglitazone 30 mg/kg OS at 12 hours and 1 hour before test, p<0.01",significant inhibition
same,"effect of yohimbine on reinstatement of responding, overall",msP rats [3]; pre-treatment with pioglitazone 10.0 and 30.0 mg/kg,significantly reduced; also recorded: markedly reduced
same,yohimbine-induced reinstatement of nicotine seeking,Long Evans rats,prevented; also recorded: significantly (p<0.001) decreased
same,"hepatic parameters (GGT, ALT, AST)",alcoholic patients; 2-month treatment,more pronounced
same,"Anxiety Score, STAY-Y1 scale (mean score values)","alcoholic patients; T = 1.1 (month 1, week 1)",58
same,Depression Scale M.A.D.R.S (mean score values),alcoholic patients; T = 1.3,10
same,Depression Scale M.A.D.R.S (mean score values),alcoholic patients; T = 1.4,11
same,Depression Scale M.A.D.R.S (mean score values),alcoholic patients; T = 2.3,10
same,"depression score, time course",alcoholic patients; during treatment with pioglitazone 30 mg/day,decreased starting from the second week of treatment
same,"effect on daily drinks, comparison of drugs","alcoholic patients; month 2 week 2 (T2.2) to month 2 week 4 (T2.4), p<0.001",significantly higher than that of naltrexone
same,"blood parameters (MCV, CDT, GGT, ALT, AST)",alcoholic patients; pioglitazone 30 mg/day,rapid normalization
same,progressive decrease in anxiety score during treatment,alcoholic patients; pioglitazone 30 mg/day,highest effect
same,progressive decrease in obsessive compulsive score for alcohol (OCDS),alcoholic patients; pioglitazone 30 mg/day,extremely robust; also recorded: consistently reduced
same,daily ethanol intake (number of daily drinks),alcoholic patients; [5],significantly reduced
same,number of abstinence days,alcoholic patients; [5],increased; also recorded: highest effect
same,"CDT and AST, naltrexone versus pioglitazone",alcoholic patients; post hoc,No significant difference
same,OCDS versus controls,"alcoholic patients; post hoc, P<0.001",statistically significant difference
same,all five blood biomarkers versus controls (psychotherapy alone),"alcoholic patients; post hoc, P<0.001",statistical difference
same,"reducing the values of MCV, GGT and ALT, comparison of drugs","alcoholic patients; post hoc, P<0.001",more effective than naltrexone
same,"MADRS depression score, pioglitazone versus naltrexone","alcoholic patients; post hoc, p<0.001",significantly different
same,"OCDS, pioglitazone versus naltrexone","alcoholic patients; post hoc, p<0.001",more effective than naltrexone
same,"anxiety score, pioglitazone versus naltrexone","alcoholic patients; post hoc, p<0.001",more effective than naltrexone
same,"number of abstinence days, comparison of drugs",alcoholic patients; second month of therapy (T 2.1-T2.4),significantly higher
same,"weekly smoked cigarettes, pioglitazone versus varenicline (post hoc)","heavy tobacco smokers; human, in vivo",no significant differences
same,craving score (visual analogic craving scale),heavy tobacco smokers; over treatment,highest reduction
same,STAI anxiety score,heavy tobacco smokers; over treatment weeks,significantly reduced
same,weekly smoked cigarettes compared to bupropione (post hoc),heavy tobacco smokers; p<0.05,significant difference
same,subjects reaching complete abstinence,"heavy tobacco smokers; pioglitazone 4 patients, varenicline 3 patients",One
